Ten compounds from PubChem BioAssay (NCI) can be followed below.

Some test systems named below: MCF7 breast; OVCAR-5 ovarian; RPMI-8226 leukemia; UACC-257 melanoma; SR leukemia; SNB-19 CNS; NCI-H460 lung; MDA-MB-435; HS 578T breast; OVCAR-8 ovarian; OVCAR-3 ovarian; T-47D breast; HOP-62 NSCLC; SF-295 CNS.
What all share (experiment): NCI tumour cell line growth inhibition, 48 h

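Tested at 5 concentrations; 48 h exposure; 96-well plates; endpoints linearly interpolated, else capped at highest concentration. TGI is the concentration that stops growth completely.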

For the compound `O=C(Nc1nnc(-c2ccccc2)o1)C(SC(=S)N1CCOCC1)c1ccccc1` (stereo not given), the TGI with MCF7 breast was more than 100 µM; with OVCAR-5 ovarian it was 88.8 µM; with RPMI-8226 leukemia, more than 100 µM; with UACC-257 melanoma, more than 100 µM; in the assay with SR leukemia, 83.7 µM; in the assay on SNB-19 CNS, more than 100 µM. For the same compound, the TGI with NCI-H460 lung is 66.1 µM; with MDA-MB-435, more than 100 µM; in the assay on HS 578T breast, more than 100 µM; in the assay on OVCAR-8 ovarian, more than 100 µM; in the assay with OVCAR-3 ovarian it was 79.7 µM; with T-47D breast, more than 100 µM. The TGI in the assay with HOP-62 NSCLC and in the assay with SF-295 CNS was more than 100 µM each time.
Take `COc1ccc(/C=C(\C(=C/c2ccc(OC)cc2)[N+](=O)[O-])[N+](=O)[O-])cc1`: the TGI was 27.3 µM in the assay with MCF7 breast; 35.4 µM in the assay with OVCAR-5 ovarian; 13 µM in the assay on RPMI-8226 leukemia; 17.1 µM with UACC-257 melanoma; more than 100 µM with SR leukemia; 30.2 µM in the assay on SNB-19 CNS. The TGI in the assay with NCI-H460 lung was 12.2 µM; in the assay on MDA-MB-435 it was 12.1 µM; in the assay with HS 578T breast it was 43.9 µM; in the assay with OVCAR-8 ovarian, 5.97 µM; in the assay on OVCAR-3 ovarian it was 71.4 µM; in the assay with T-47D breast it was 35.7 µM. In addition, the TGI in the assay with HOP-62 NSCLC is 21.2 µM; in the assay on SF-295 CNS, 30.2 µM.
For the compound `NS(=O)(=O)c1ccc(Nc2c3ccccc3nc3c(C(=O)NCCCN(CCO)CCO)cccc23)cc1`, the TGI in the assay with MCF7 breast was determined as 20.1 µM; in the assay with OVCAR-5 ovarian, 98.4 µM; in the assay with RPMI-8226 leukemia, 78.7 µM; with UACC-257 melanoma, 67.6 µM; with SR leukemia, 40.6 µM; with SNB-19 CNS it was 45.7 µM. Further, the TGI was 36.9 µM with NCI-H460 lung; 37.2 µM in the assay on MDA-MB-435; 53.8 µM in the assay with HS 578T breast; more than 100 µM in the assay on OVCAR-8 ovarian; 62.5 µM with OVCAR-3 ovarian; 44.2 µM with T-47D breast. In addition, the TGI is 66.1 µM in the assay with HOP-62 NSCLC and more than 100 µM in the assay with SF-295 CNS.
For `O=C(OCCN1CCCCC1)C(c1ccccc1)C1(O)CCSCC1` (stereo not given), the TGI in the assay with MCF7 breast, in the assay on OVCAR-5 ovarian, in the assay with RPMI-8226 leukemia, with UACC-257 melanoma, in the assay with SR leukemia and in the assay on SNB-19 CNS was more than 100 µM throughout. In addition, the TGI in the assay with NCI-H460 lung, in the assay on MDA-MB-435, with HS 578T breast, in the assay on OVCAR-8 ovarian, with OVCAR-3 ovarian and in the assay on T-47D breast was more than 100 µM in each case. The TGI with HOP-62 NSCLC and in the assay on SF-295 CNS was more than 100 µM in each case.
Consider `COC(=O)c1ccccc1C#CCCCOS(C)(=O)=O`, for which the TGI with MCF7 breast, in the assay on OVCAR-5 ovarian, with RPMI-8226 leukemia, with UACC-257 melanoma, in the assay on SR leukemia and with SNB-19 CNS was more than 10 µM each time. For the same compound, the TGI with NCI-H460 lung, with MDA-MB-435, with HS 578T breast, in the assay on OVCAR-8 ovarian, in the assay with OVCAR-3 ovarian and with T-47D breast was more than 10 µM each time. For the same compound, the TGI in the assay on HOP-62 NSCLC and in the assay with SF-295 CNS was more than 10 µM throughout.
With `C=CC(C)(C)N[C@@H](C(=O)N1CCC[C@H]1c1nc(-c2nc(C(=O)OCC=C(C)C)c(C)o2)c(C)o1)C(C)C`, the TGI was 91.4 µM in the assay on MCF7 breast; more than 100 µM with OVCAR-5 ovarian; 61.8 µM in the assay with RPMI-8226 leukemia; 38.4 µM in the assay on UACC-257 melanoma; 40.6 µM with SR leukemia; 55 µM in the assay with SNB-19 CNS. Also, the TGI with NCI-H460 lung amounted to 51.1 µM; in the assay on MDA-MB-435, 39.8 µM; in the assay on HS 578T breast, 40.2 µM; with OVCAR-8 ovarian, 65 µM; with OVCAR-3 ovarian, 59.5 µM; with T-47D breast, 73.4 µM. For the same compound, the figures for the TGI in the assay with HOP-62 NSCLC and in the assay with SF-295 CNS were 51.7 µM and 42.8 µM, respectively.
On to `CCOC(=O)C(NC(=O)CC(C)C)(Nc1ccc(C(F)(F)F)cc1)C(F)(F)F` (stereo not given), for which the TGI is more than 100 µM in the assay with MCF7 breast; more than 100 µM in the assay on OVCAR-5 ovarian; 93.8 µM with RPMI-8226 leukemia; more than 100 µM with UACC-257 melanoma; more than 100 µM with SR leukemia; more than 100 µM in the assay on SNB-19 CNS. Besides, the TGI with NCI-H460 lung was more than 100 µM; in the assay on MDA-MB-435, more than 100 µM; in the assay on HS 578T breast it was more than 100 µM; in the assay on OVCAR-8 ovarian it was more than 100 µM; with OVCAR-3 ovarian it was more than 100 µM; in the assay with T-47D breast, 81.8 µM. Moreover, the TGI in the assay on HOP-62 NSCLC and with SF-295 CNS was more than 100 µM in each case.
As to `O=C1CCC2(CC1CCSc1ccccc1)OCCO2` (stereo not given), the TGI in the assay on MCF7 breast, with OVCAR-5 ovarian, in the assay with RPMI-8226 leukemia, in the assay on UACC-257 melanoma, in the assay on SR leukemia and in the assay on SNB-19 CNS was more than 100 µM in each case. Moreover, the TGI in the assay with NCI-H460 lung, with MDA-MB-435, with HS 578T breast, in the assay with OVCAR-8 ovarian, in the assay on OVCAR-3 ovarian and in the assay on T-47D breast was more than 100 µM in each case. For the same compound, the TGI in the assay on HOP-62 NSCLC and in the assay on SF-295 CNS was more than 100 µM each time.
Take `Nc1ccc(-c2nc3cc(F)ccc3s2)cc1I`: the TGI with MCF7 breast was 3.91 µM; with OVCAR-5 ovarian, 43 µM; with RPMI-8226 leukemia it was more than 100 µM; with UACC-257 melanoma it was more than 100 µM; with SR leukemia, more than 59.5 µM; in the assay on SNB-19 CNS, 54.9 µM. Moreover, the TGI in the assay with NCI-H460 lung is 23.7 µM; in the assay with MDA-MB-435 it was more than 100 µM; with HS 578T breast, more than 75.1 µM; with OVCAR-8 ovarian it was 42.4 µM; with OVCAR-3 ovarian, more than 37.9 µM; in the assay on T-47D breast it was 97.2 µM. The results for the TGI in the assay on HOP-62 NSCLC and with SF-295 CNS were 33.6 µM and more than 56.6 µM, respectively.
Regarding `O=C(NCCCCNCCCNC(=O)c1ccccc1)c1ccccc1`, the TGI in the assay on MCF7 breast, with OVCAR-5 ovarian, in the assay with RPMI-8226 leukemia, with UACC-257 melanoma, in the assay on SR leukemia and with SNB-19 CNS was more than 100 µM in each case. The TGI in the assay with NCI-H460 lung, with MDA-MB-435, in the assay on HS 578T breast, with OVCAR-8 ovarian, in the assay with OVCAR-3 ovarian and with T-47D breast was more than 100 µM each time. Further, the TGI in the assay on HOP-62 NSCLC and in the assay on SF-295 CNS was more than 100 µM each time.
